Biological target: T1, Plasminogen (Homo sapiens, UniProt P00747)
Experiment: Ability to inhibit human plasmin using Chromozym-PL as substrate at concentration of 1 uM

T1 sequence (P00747 97-580 limits assumed): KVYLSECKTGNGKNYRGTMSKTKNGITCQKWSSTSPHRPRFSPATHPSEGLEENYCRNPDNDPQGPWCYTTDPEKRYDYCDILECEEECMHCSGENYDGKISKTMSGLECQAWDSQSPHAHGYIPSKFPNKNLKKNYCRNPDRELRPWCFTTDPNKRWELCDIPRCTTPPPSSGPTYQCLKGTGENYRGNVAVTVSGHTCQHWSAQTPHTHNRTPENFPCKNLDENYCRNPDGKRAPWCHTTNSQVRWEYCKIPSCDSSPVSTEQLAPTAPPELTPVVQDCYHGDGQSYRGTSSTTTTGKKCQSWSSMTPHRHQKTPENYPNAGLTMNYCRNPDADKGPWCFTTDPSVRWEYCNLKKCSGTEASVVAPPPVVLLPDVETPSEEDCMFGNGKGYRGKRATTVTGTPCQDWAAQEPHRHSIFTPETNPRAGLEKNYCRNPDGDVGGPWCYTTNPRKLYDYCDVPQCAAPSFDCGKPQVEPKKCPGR
T1 sequence (P00747 581-810 limits assumed): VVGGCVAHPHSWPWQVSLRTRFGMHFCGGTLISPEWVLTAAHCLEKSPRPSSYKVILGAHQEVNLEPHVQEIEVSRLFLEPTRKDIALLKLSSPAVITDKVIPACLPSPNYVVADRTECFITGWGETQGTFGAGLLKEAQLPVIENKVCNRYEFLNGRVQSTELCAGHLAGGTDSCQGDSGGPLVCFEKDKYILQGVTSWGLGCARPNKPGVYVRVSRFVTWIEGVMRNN

SMILES	inhibition [%]
N=C(N)Nc1ccncn1	< 50
N=C(N)Nc1ccccn1	< 50
N=C(N)Nc1ncccn1	< 50
N=C(N)Nc1cccnc1	< 50
N=C(N)Nc1cnccn1	< 50

Biological target: T2, Urokinase-type plasminogen activator (Homo sapiens, UniProt P00749)
Experiment: Ability to inhibit microPa (calbiochem) and S-2444 (quadratech) as substrate at concentration of 100 uM

SMILES	inhibition [%]
N=C(N)Nc1cccnn1	< 50

Biological target: T3, Tissue-type plasminogen activator (Homo sapiens, UniProt P00750)
Experiment: Ability to inhibit human tissue plasminogen activator stimulator at concentration of 1 uM
Target sequence in this assay (P00750 36-562 limits assumed): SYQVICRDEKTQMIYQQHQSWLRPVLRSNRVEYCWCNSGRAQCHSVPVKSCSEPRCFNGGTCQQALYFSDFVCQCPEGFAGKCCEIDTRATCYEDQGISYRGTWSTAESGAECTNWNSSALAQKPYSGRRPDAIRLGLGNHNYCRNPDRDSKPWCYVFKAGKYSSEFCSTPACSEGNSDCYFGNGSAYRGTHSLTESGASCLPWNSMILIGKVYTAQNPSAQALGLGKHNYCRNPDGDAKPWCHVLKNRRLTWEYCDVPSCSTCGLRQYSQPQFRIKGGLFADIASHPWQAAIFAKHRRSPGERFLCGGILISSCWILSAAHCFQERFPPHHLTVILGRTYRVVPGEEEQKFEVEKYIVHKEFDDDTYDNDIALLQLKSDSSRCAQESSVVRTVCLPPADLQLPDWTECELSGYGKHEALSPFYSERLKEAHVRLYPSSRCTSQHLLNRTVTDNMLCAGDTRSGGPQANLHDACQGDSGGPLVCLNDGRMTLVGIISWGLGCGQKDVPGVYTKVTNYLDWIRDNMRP

SMILES	inhibition [%]
N=C(N)Nc1ccncn1	< 50
N=C(N)Nc1ccccn1	< 50
N=C(N)Nc1ncccn1	< 50
N=C(N)Nc1cccnc1	< 50
N=C(N)Nc1cnccn1	< 50

Biological target: T3, Tissue-type plasminogen activator
Experiment: Ability to inhibit human tissue plasminogen activator stimulator at concentration of 100 uM
Target sequence in this assay (P00750 36-562 limits assumed): as above

SMILES	inhibition [%]
N=C(N)Nc1cccnn1	< 50

Biological target: T3, Tissue-type plasminogen activator
Experiment: Ability to inhibit human tissue plasminogen activator stimulator at concentration of 30 uM
Target sequence in this assay (P00750 36-562 limits assumed): as above

SMILES	inhibition [%]
N=C(N)Nc1ccncc1	< 50

Biological target: T3, Tissue-type plasminogen activator
Experiment: Ability to inhibit human tissue plasminogen activator stimulator
Target sequence in this assay (P00750 whole entry): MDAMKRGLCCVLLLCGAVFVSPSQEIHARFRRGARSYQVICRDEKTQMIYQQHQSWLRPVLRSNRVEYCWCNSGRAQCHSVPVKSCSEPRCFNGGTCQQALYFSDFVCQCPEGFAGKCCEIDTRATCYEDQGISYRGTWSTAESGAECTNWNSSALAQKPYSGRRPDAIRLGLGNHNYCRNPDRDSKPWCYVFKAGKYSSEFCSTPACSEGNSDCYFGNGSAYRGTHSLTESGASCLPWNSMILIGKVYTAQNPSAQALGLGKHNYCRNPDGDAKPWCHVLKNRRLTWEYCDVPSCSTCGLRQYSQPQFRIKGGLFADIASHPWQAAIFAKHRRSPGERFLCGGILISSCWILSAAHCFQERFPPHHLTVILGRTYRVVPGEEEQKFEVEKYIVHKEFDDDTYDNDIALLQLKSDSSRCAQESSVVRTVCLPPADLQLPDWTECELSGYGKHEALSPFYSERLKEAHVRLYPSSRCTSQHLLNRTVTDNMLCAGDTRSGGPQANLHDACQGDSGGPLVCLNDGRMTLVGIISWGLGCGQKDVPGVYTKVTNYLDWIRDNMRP

SMILES	Ki [µM]
NC(N)=Nc1ncc(Cl)cc1Br	272

Biological target: T1, Plasminogen
Experiment: Inhibition of human plasmin with Chromozym-PL at 1 mM

SMILES	inhibition [%]
Cc1ccnc(NC(=N)N)c1	< 50
COc1ccnc(NC(=N)N)c1	< 50
N=C(N)Nc1ccc(Cl)cn1	< 50
N=C(N)Nc1ncc(Cl)cc1Br	< 50
N=C(N)Nc1ncc(C(F)(F)F)cc1Cl	< 50
Cc1cccc(N=C(N)N)n1	< 50
N=C(N)Nc1ncccc1O	< 50
N=C(N)Nc1ncc(Br)cc1Cl	< 50
N=C(N)Nc1ccc(Br)cn1	< 50
N=C(N)Nc1ncc(Cl)cc1Cl	< 50
N=C(N)Nc1cc(-c2ccccc2)ccn1	< 50
Cc1cccnc1N=C(N)N	< 50

Biological target: T2, Urokinase-type plasminogen activator
Experiment: Ability to inhibit microPa (calbiochem) and S-2444 (quadratech) as substrate at concentration of 1 uM

SMILES	inhibition [%]
N=C(N)Nc1ccncn1	< 50
N=C(N)Nc1cccnc1	< 50
N=C(N)Nc1cnccn1	< 50

Biological target: T3, Tissue-type plasminogen activator
Experiment: Inhibition of human tissue plasminogen activator stimulator at 1 mM
Target sequence in this assay (P00750 36-562 limits assumed): as the sequence (P00750 36-562 limits assumed) above

SMILES	inhibition [%]
COc1ccnc(NC(=N)N)c1	< 50
N=C(N)Nc1ccc(Cl)cn1	< 50
Cc1c(Cl)cnc(N=C(N)N)c1Cl	< 50
N=C(N)Nc1ncc(C(F)(F)F)cc1Cl	< 50
COc1cccnc1N=C(N)N	< 50
Cc1cccc(N=C(N)N)n1	< 50
N=C(N)Nc1ncccc1O	< 50
N=C(N)Nc1ncc(Br)cc1Cl	< 50
N=C(N)Nc1ccc(Br)cn1	< 50
Cc1ccc(NC(=N)N)nc1	< 50
N=C(N)Nc1ncc(Cl)cc1Cl	< 50
N=C(N)Nc1cc(-c2ccccc2)ccn1	54

Biological target: T1, Plasminogen
Experiment: Ability to inhibit human plasmin using Chromozym-PL as substrate at concentration of 30 uM

SMILES	inhibition [%]
N=C(N)Nc1cccnn1	< 50

Biological target: T3, Tissue-type plasminogen activator
Experiment: Ability to inhibit human tissue plasminogen activator stimulator at concentration of 1 mM
Target sequence in this assay (P00750 36-562 limits assumed): as above

SMILES	inhibition [%]
Cc1ccnc(NC(=N)N)c1	< 50
N=C(N)Nc1ccc(Cl)cc1	< 50
Cc1cccnc1N=C(N)N	< 50

Biological target: T2, Urokinase-type plasminogen activator
Experiment: In vitro inhibition of HWMT human urokinase Plasminogen activator.

SMILES	Ki [µM]
Cc1ccnc(NC(=N)N)c1	83.8
NC(N)=Nc1ncccc1O	147
N=C(N)Nc1ccccn1	29.5
N=C(N)Nc1ncccn1	292
NC(N)=Nc1ncc(Br)cc1Cl	2.9
Cc1cccc(N=C(N)N)n1	173
N=C(N)Nc1ccc(Br)cn1	3.13
Cc1ccc(NC(=N)N)nc1	32.3
Cc1cccnc1N=C(N)N	37.7
NC(N)=Nc1ncc(Cl)cc1Cl	5.47

Biological target: T1, Plasminogen
Experiment: Ability to inhibit human plasmin using Chromozym-PL as substrate

SMILES	Ki [µM]
Cc1c(Cl)cnc(N=C(N)N)c1Cl	176
COc1cccnc1N=C(N)N	< 232
N=C(N)Nc1ccncc1	16.9
N=C(N)Nc1ccc(Cl)cc1	< 50

Biological target: T2, Urokinase-type plasminogen activator
Experiment: Ability to inhibit microPa (calbiochem) and S-2444 (quadratech) as substrate at concentration of 30 uM

SMILES	inhibition [%]
N=C(N)Nc1ccncc1	< 50

Reference: ChEMBL document CHEMBL1136034, “Selective urokinase-type plasminogen activator (uPA) inhibitors. Part 1: 2-Pyridinylguanidines” (Bioorg Med Chem Lett, 2002)
